PMC12040169 (PLOS Biology, 2025)

Test: in vitro
Conditions: human, hela cells, % viability

| SMILES | viability at 28.5 h, 10 µM [%] |
| --- | --- |
| COc1nc(OC)nc(Sc2ccc(N)cc2)n1 [CBK019319] | 88.3 |
| N#Cc1c(-c2ccc(Cl)cc2)c[nH]c1N [CBK019323] | 104 |
| CC(C)(C)OC(=O)N(Cc1cccs1)S(C)(=O)=O [CBK019338] | 94.1 |
| CN1CCN(CC(=O)N/N=C/C2CC=CCC2)CC1 (stereo not drawn) [CBK019340] | 89.6 |
| CCP(CC)c1ccc(C(=O)O)cc1 [CBK019342B] | 91.1 |
| CSc1ccc(CN(C)CCN(C)C)cc1 [CBK019349] | 97.9 |
| CC1CN(C2(n3nnc4ccccc43)CCC(C(C)(C)C)CC2)CC(C)O1 (stereo not drawn) [CBK019373] | 98.5 |
| O=S(=O)(c1ccc(C2=CSC3=NCCN23)cc1)N1CCOCC1 [CBK019381] | 101 |
| CSc1nn(C)c(=S)c2c3c(oc12)CCC3 [CBK019474] | 92.3 |
| CCOC(=O)N/N=C(/C)c1ccc(Br)s1 [CBK019480] | 93.5 |
| CS(=O)(=O)CS(=O)(=O)C1=C(N2CCOCC2)C2CCN1CC2 [CBK019499] | 87.5 |
| CCOc1sc(=S)n(C)c1C(C)=O [CBK019515] | 88 |
| O=C(CSc1cccs1)Nc1nccs1 [CBK019601] | 88.7 |
| N#Cc1sc(N)c2ccc(-c3ccncc3)nc12 [CBK019761] | 105 |
| NC(=O)NCc1ccc(F)cc1 [CBK019769] | 110 |
| O=[N+]([O-])c1cc(-c2nc(-c3ccco3)c(-c3ccco3)[nH]2)ccc1Br [CBK019778] | 86.3 |
| CO/N=C(N)/C(N)=N/OC [CBK019780] | 98.4 |
| Cc1ccc(CSc2cnc(C(C)(C)C)nc2)cc1 [CBK019832] | 112 |
| O=C1NC(=O)c2c(NC(=O)C3CCCCC3)cccc21 [CBK019837] | 88.3 |
| N/C(=N\O)c1ccc(OC(F)(F)F)cc1 [CBK019865] | 97.2 |
| COc1nc(N)nc(C/C(=N\NC(=O)c2cccnc2)C2CC2)n1 [CBK019872] | 90.9 |
| COc1ccc(-c2sc(C(=O)O)c(C)c2C#N)cc1 [CBK019922] | 101 |
| O=S1(=O)N=C(c2c(O)nc3ccccc3c2O)Nc2ccccc21 [CBK019929] | 90.7 |
| CCSc1nc(SCC)c2c3c([nH]c2n1)CCCC3 [CBK019936] | 94.6 |
| CC(C)(C)c1cc2cc(NC(=O)C3CC3)ccc2[nH]1 [CBK019994] | 115 |

| SMILES | viability at 28.5 h, 10 µM [%] |
| --- | --- |
| Nc1nnc(Sc2nccc(C(F)(F)F)n2)s1 [CBK020023] | 99.5 |
| CNC(=S)NCc1ccncc1 [CBK020033] | 106 |
| CCOC(=O)NC(=S)NC(=O)C(C)(C)C [CBK020037] | 100 |
| FC(F)(F)c1nnc2ccc(-n3ccnc3)nn12 [CBK020041] | 96.1 |
| O=S(=O)(c1ccccc1)C1C2C=CC(COC3CCCCO3)(O2)C1S(=O)(=O)c1ccccc1 (stereo not drawn) [CBK020045] | 92.6 |
| CCOC(=O)c1c2c([nH]c(=S)c1C#N)CCCC2 [CBK020049] | 97.6 |
| CCN(CC)c1ccc(/C=N/NC(=O)CC2=NNC(=O)C2)cc1 [CBK020059] | 91.8 |
| O=C(Cn1cncn1)c1ccc2c(c1)CCO2 [CBK020087] | 93.5 |
| CC1CC(=O)C2=C(C1)NN=C(c1cccc(C(F)(F)F)c1)C2 (stereo not drawn) [CBK020138] | 86.9 |
| CN(C)CCN(Cc1ccccn1)c1ncccn1 [CBK020142] | 116 |
| CCCCc1c(Cl)nc(C#N)c2c1CCCC2 [CBK020252] | 98.9 |
| O=S1(=O)N=c2cc3c(c4cccc1c24)=Nc1ccccc1N3 [CBK020253] | 89.9 |
| CN1CCN(CCP(=O)(c2ccccc2)c2ccccc2)CC1 [CBK020260] | 94.1 |
| CC1CC(/N=C2/NCCS2)CC(C)(C)C1 (stereo not drawn) [CBK020293] | 102 |
| CCCc1onc(S(=O)(=O)c2ccc(C)cc2)c1NC [CBK020322] | 84.3 |
| CC(=O)C(C)Oc1ccccc1-n1cccc1 (stereo not drawn) [CBK020334] | 95.9 |
| O=C(O)CCn1oc(=O)c2ccccc21 [CBK020340] | 89.8 |
| O=C1C=C(OCc2ccccc2)CN1 [CBK020360] | 94.4 |
| CC1(C)CN(c2ccc(S(N)(=O)=O)cc2)C1=O [CBK020416] | 90.6 |
| CCCCc1nccn1CCn1ccnc1CCCC [CBK020437] | 88.7 |
| c1csc(-c2cnc3ccccc3n2)c1 [CBK020525] | 93.2 |
| O=C(NCCc1nc2ccccc2[nH]1)c1cccs1 [CBK020529] | 99.4 |
| COc1ccc(OC)c(/N=C2\CC(=O)CC(C)(C)C2)c1 [CBK020541] | 106 |
| O=C(O)CNCCC(=O)c1ccc([N+](=O)[O-])cc1 [CBK020544] | 87 |
| CCOC(=O)c1ncoc1-c1ccc(Cl)cc1Cl [CBK020578] | 90.2 |

| SMILES | viability at 28.5 h, 10 µM [%] |
| --- | --- |
| CC(=O)Cn1nnnc1C [CBK020588] | 99.6 |
| CC(C)CS(=O)(=O)Nc1ccc(F)cc1F [CBK020615] | 91.9 |
| OCCSCc1ccc2nonc2c1 [CBK020617] | 107 |
| CN(C)C(c1ccc2c(c1)OCO2)c1nnnn1C1CCCCC1 (stereo not drawn) [CBK020620] | 103 |
| O=C1CSC(c2cccc(Cl)c2Cl)N1C1CCCCC1 (stereo not drawn) [CBK020678] | 96.7 |
| O=C(Nc1ccc2[nH]c(C3CCCCC3)nc2c1)C1CCCCC1 [CBK020680] | 87.7 |
| CC(C)(C)SCCNC(=S)NCCO [CBK020686] | 98.7 |
| CSc1cc(C)c(O)c(CO)c1 [CBK020687] | 85.7 |
| CCc1c(C)nc2nnc(NC(=O)C(F)(F)F)n2c1O [CBK020762] | 102 |
| COc1nc(OC)nc(OC2=CC(=O)CC(C)(C)C2)n1 [CBK020772] | 95.5 |
| CC1=C(CCN2CCCC(CO)C2)C(C)(C)CCC1 (stereo not drawn) [CBK020827] | 88.2 |
| CC(C)(C)NCC(O)COc1c(F)cc(Br)cc1F (stereo not drawn) [CBK020879C] | 107 |
| CCOC(=O)c1sc(C)c(C(N)=O)c1/N=C1\CCCN1 [CBK020893] | 105 |
| CCCC(SCC)C(N)=O (stereo not drawn) [CBK020895] | 99.1 |
| COC(=O)c1cc(Cl)c(NC(=S)NC(=O)C(C)(C)C)cc1OC [CBK020937] | 94.1 |
| CCOC(=O)c1sc2ccc(NC(C)=O)cc2c1C [CBK021052] | 76.8 |
| COc1ccc(C2NCCS2)cc1Br (stereo not drawn) [CBK021053] | 104 |
| COc1ccc(CCOC(=O)Nc2cn(C)nc2C(F)(F)F)cc1OC [CBK021070] | 105 |
| IC1COC(c2ccccc2)OC1 (stereo not drawn) [CBK021109] | 110 |
| CN1CCC(N(C2CC2)S(=O)(=O)c2ccc(NC(=O)C(C)(C)C)cc2)CC1 [CBK021115] | 99 |
| Cc1oc(-c2cccs2)cc1C(=O)O [CBK021183] | 93.5 |
| Cc1ccc(COCSc2nc3ccccc3n2CC(O)CO)cc1C (stereo not drawn) [CBK021195] | 85.1 |
| CC(=O)c1cc2c(N)c(/C(N)=N/C#N)sc2nc1C [CBK021202] | 70.7 |
| Brc1csc(CNc2ccc3cn[nH]c3c2)c1 [CBK021216] | 75.1 |
| Cc1ccc(CCn2cc(C)nc2C)cn1 [CBK021231] | 106 |

| SMILES | viability at 28.5 h, 10 µM [%] |
| --- | --- |
| COc1ccc2cc3c(nc2c1)Sc1nncn1N=C3 [CBK021248] | 100 |
| CNC(=S)N/N=C/c1c(C)cccc1Cl [CBK021253] | 84.6 |
| C/C(=N\c1ccccc1C(F)(F)F)c1ccncc1 [CBK021262] | 86.6 |
| O=C(Nc1ccccn1)NC1CCS(=O)(=O)C1 (stereo not drawn) [CBK021330] | 99.9 |
| CCOC(=O)c1c(C#N)c(SCc2ccc(Cl)cc2)nc2c1CN(CC)CC2 [CBK021337] | 90.9 |
| Nc1nnc2c(C(F)(F)F)nc3ccccc3n12 [CBK021345] | 82.1 |
| COC(=O)c1ccc(Cl)cc1N(Cc1c(F)cccc1Cl)S(C)(=O)=O [CBK021351] | 85.3 |
| Cc1ccc(CCn2nc(C)cc2C)cn1 [CBK021375] | 104 |
| CCOC(=O)C1=NN(C)c2cnn(Cc3ccc(Cl)cc3)c(=O)c2C1C(=O)CC(C)C (stereo not drawn) [CBK021389] | 91.9 |
| COc1ccccc1N1C(=O)[C@H]2N=C(C(=O)c3cnccn3)N[C@H]2C1=O [CBK021406] | 90.3 |
| COC(=O)c1cn(C(=O)c2snnc2C)nc1C(C)(C)C [CBK021420] | 89.2 |
| CCOC(=O)C(NC(=O)N(C1=NCC(C)S1)C1CCCCC1)(OC)C(F)(F)F (stereo not drawn) [CBK021431] | 96.8 |
| CCCCSc1cc(C)nc2ncnn12 [CBK021443] | 105 |
| COc1ccc(Cc2nc(C(C)(C)C)cs2)cc1 [CBK021497B] | 85 |
| CCOC(=O)C1=C(C)Nc2nc(C)nc(Cl)c2O1 [CBK021504] | 103 |
| CC(C)(C)c1csc(Nc2ncc(C(F)(F)F)cc2Cl)n1 [CBK021513] | 77.5 |
| N=C(N)NC(=N)Nc1ccc2c(c1)OCCO2 [CBK021572C] | 84.3 |
| c1ccc(NCc2ncnc3c2ncn3C2CCCCO2)cc1 (stereo not drawn) [CBK021593] | 100 |
| CC(C)(C)NC(=O)NCC(c1ccc[nH]1)C(F)(F)F (stereo not drawn) [CBK021595] | 92.3 |
| Nc1nc(Cl)cc(Sc2ccc3ccccc3c2)n1 [CBK021630] | 97.4 |
| CCc1c(C)sc(NC(=O)c2ccc(Br)o2)c1C#N [CBK021662] | 83.6 |
| CNCCC(Sc1ccccn1)c1ccccc1 (stereo not drawn) [CBK021724C] | 93.5 |
| CCOC(=O)Cc1nnc(-c2ccc(Cl)cc2)[nH]1 [CBK021882] | 89.1 |
| O=C(CCS(=O)(=O)c1ccc(Br)cc1)OCC(=O)c1ccccc1 [CBK021886] | 104 |
| FC(F)(F)c1ccncc1-n1cccc1 [CBK021909] | 85.9 |

Same assay, conditions: human, hela cells, % viability, bulk resorufin, single well

| SMILES | viability at 28.5 h, 10 µM [%] |
| --- | --- |
| O=C1OC(c2c(O)nc(=O)[nH]c2O)c2ccccc21 (stereo not drawn) [CBK019775] | 113 |
| CCOC(=O)C1(c2ccccc2)CCN(CC(=O)Nc2ccc(C(=O)OC)cc2)CC1 [CBK020942] | 92.9 |
